What was measured:
Format in all cases: in vivo
[1] = test system: Orchid thrips (dichromothrips corbetti); assay: Orchid thrips floral-immersion test; conditions: dipped orchid flowers, adult thrips, 72 hours after treatment, read-out: mortality in comparison with untreated controls
Description: B.4 Orchid thrips (dichromothrips corbetti)
Dichromothrips corbetti adults used for bioassay were obtained from a colony maintained continuously under laboratory conditions. For testing purposes, the test compound was diluted in a 1:1 mixture of acetone:water (vol:vol), plus 0.01% vol/vol Alkamuls® EL 620 surfactant.
Thrips potency of each compound was evaluated by using a floral-immersion technique. Plastic petri dishes were used as test arenas. All petals of individual, intact orchid flowers were dipped into treatment solution and allowed to dry. Treated flowers were placed into individual petri dishes along with about 20 adult thrips. The petri dishes were then covered with lids. All test arenas were held under continuous light and a temperature of about 28° ° C. for duration of the assay. After 3 days, the numbers of live thrips were counted on each flower, and along inner walls of each petri dish. The percent mortality was recorded 72 hours after treatment.

[2] = test system: Mediterranean fruitfly (Ceratitis capitata); assay: Mediterranean fruitfly microtiter plate diet test; conditions: 120 h, sprayed onto insect diet, egg and larval mortality after 5 days, read-out: mortality in comparison with untreated controls
Description: B.3 Mediterranean fruitfly (Ceratitis capitata)
For evaluating control of Mediterranean fruitfly (CeratitiS capitate) the test unit consisted of microtiter plates containing an insect diet and 50-80 C. capitata eggs.
(§1) The compounds were formulated using a solution containing 75% v/v water and 25% v/v DMSO. Different concentrations of formulated compounds were sprayed onto the insect diet at 5 μl, using a custom built micro atomizer, at two replications.
After application, microtiter plates were incubated at about 28±1° C. and about 80±5% relative humidity for 5 days. Egg and larval mortality was then visually assessed.

[3] = test system: Tobacco budworm (Heliothis virescens); assay: Tobacco budworm foliar spray test on cotton plants; conditions: 96 h, sprayed cotton plants, larvae, 4 days after treatment, read-out: mortality in comparison with untreated controls
Description: B.7 Tobacco budworm (Heliothis virescens) I
(§2) The active compounds were formulated in cyclohexanone as a 10,000 ppm solution supplied in tubes. The tubes were inserted into an automated electrostatic sprayer equipped with an atomizing nozzle and they served as stock solutions for which lower dilutions were made in 50% acetone:50% water (v/v). A nonionic surfactant (Kinetic®) was included in the solution at a volume of 0.01% (v/v).
Cotton plants were grown 2 plants to a pot and selected for treatment at the cotyledon stage. Test solutions were sprayed onto the foliage by an automated electrostatic plant sprayer equipped with an atomizing spray nozzle. The plants were dried in the sprayer fume hood and then removed from the sprayer. Each pot was placed into perforated plastic bags with a zip closure. About 10 to 11 budworm larvae were placed into the bag and the bags zipped closed. Test plants were maintained in a growth room at about 25° C. and about 20-40% relative humidity for 4 days, avoiding direct exposure to fluorescent light (24 hour photoperiod) to prevent trapping of heat inside the bags. Mortality and reduced feeding were assessed 4 days after treatment, compared to untreated control plants.

[4] = test system: Diamond back moth (plutella xylostella); assay: Diamond back moth cabbage leaf-dip test; conditions: dipped cabbage leaves, 3rd instar larvae, 72 hours after treatment, read-out: mortality in comparison with untreated controls
Description: B.2 Diamond back moth (plutella xylostella)
The active compound was dissolved at the desired concentration in a mixture of 1:1 (vol:vol) distilled water:acteone. Surfactant (Alkamuls® EL 620) was added at a rate of 0.1% (vol/vol). The test solution was prepared at the day of use.
Leaves of cabbage were dipped in test solution and air-dried. Treated leaves were placed in petri dishes lined with moist filter paper and inoculated with ten 3rd instar larvae. Mortality was recorded 72 hours after treatment. Feeding damages were also recorded using a scale of 0-100%.

[5] = test system: Green Peach Aphid (Myzus persicae); assay: Green peach aphid spray test on bell pepper plants; conditions: 120 h, sprayed infested bell pepper plants, after 5 days, read-out: mortality in comparison with untreated controls
Source text: B.9 Green Peach Aphid (Myzus persicae)
as §2
Bell pepper plants at the first true-leaf stage were infested prior to treatment by placing heavily infested leaves from the main colony on top of the treatment plants. Aphids were allowed to transfer overnight to accomplish an infestation of 30-50 aphids per plant and the host leaves were removed. The infested plants were then sprayed by an automated electrostatic plant sprayer equipped with an atomizing spray nozzle. The plants were dried in the sprayer fume hood, removed, and then maintained in a growth room under fluorescent lighting in a 24-hr photoperiod at about 25° C. and about 20-40% relative humidity. Aphid mortality on the treated plants, relative to mortality on untreated control plants, was determined after 5 days.

[6] = test system: Cowpea aphid (aphis craccivora); assay: Cowpea aphid spray test on potted cowpea plants; conditions: sprayed cowpea plants, assessed after 72 hours, read-out: mortality in comparison with untreated controls
Description: B.1 Cowpea aphid (aphis craccivora)
The active compound was dissolved at the desired concentration in a mixture of 1:1 (vol:vol) distilled water:acetone. Surfactant (Alkamuls® EL 620) was added at a rate of 0.1% (vol/vol). The test solution was prepared at the day of use.
Potted cowpea plants were colonized with approximately 50-100 aphids of various stages by manually transferring a leaf tissue cut from infested plant 24 hours before application. Plants were sprayed after the pest population had been recorded. Treated plants were maintained on light carts at about 28° C. Percent mortality was assessed after 72 hours.

[7] = test system: Boll weevil (Anthonomus grandis); assay: Boll weevil microtiter plate diet test; conditions: 120 h, sprayed onto insect diet, egg and larval mortality after 5 days, read-out: mortality in comparison with untreated controls
Description: B.8 Boll weevil (Anthonomus grandis)
For evaluating control of boll weevil (Anthonomus grandis) the test unit consisted of 96-well-microtiter plates containing an insect diet and 20-30 A. grandis eggs.
as §1
After application, microtiter plates were incubated at about 25±1° C. and about 75±5% relative humidity for 5 days. Egg and larval mortality was then visually assessed.

[8] = test system: Vetch aphid (Megoura viciae); assay: Vetch aphid broad bean leaf disk microtiter test; conditions: foliar, 120 h, sprayed broad bean leaf disks, adult aphids, 5 days, read-out: mortality in comparison with untreated controls
Description: B.6 Vetch aphid (Megoura viciae)
For evaluating control of vetch aphid (Megoura viciae) through contact or systemic means the test unit consisted of 24-well-microtiter plates containing broad bean leaf disks. The compounds were formulated using a solution containing 75% v/v water and 25% v/v DMSO. Different concentrations of formulated compounds were sprayed onto the leaf disks at 2.5 μl, using a custom built micro atomizer, at two replications.
After application, the leaf disks were air-dried and 5-8 adult aphids placed on the leaf disks inside the microtiter plate wells. The aphids were then allowed to suck on the treated leaf disks and incubated at about 23±1° C. and about 50±5% relative humidity for 5 days. Aphid mortality and fecundity was then visually assessed.

CNC(=O)c1cc(/C=N/OC)cc(C)c1NC(=O)c1ccc(C(F)(F)F)cc1-c1ncccc1Cl [Compound 1-1, 2-[[2-(3-chloro-2-pyridyl)-4-(trifluoromethyl)benzoyl]amino]-5-[(E)-methoxyiminomethyl]-N,3-dimethyl-benzamide]
> 75%: mortality at 500 ppm [1] | mortality at 2500 ppm [2] | mortality at 2500 ppm [3] | mortality at 500 ppm [4] | mortality at 2500 ppm [5] | mortality at 500 ppm [6] | mortality at 2500 ppm [7] | mortality at 2500 ppm [8]

CNC(=O)c1cc(-n2cncn2)cc(C)c1NC(=O)c1ccc(C(F)(F)F)cc1-c1ncccc1Cl [Compound 1-2, 2-[[2-(3-chloro-2-pyridyl)-4-(trifluoromethyl)benzoyl]amino]N,3-dimethyl-5-(1,2,4-triazol-1-yl)benzamide]
> 75%: mortality at 500 ppm [1] | mortality at 2500 ppm [2] | mortality at 2500 ppm [3] | mortality at 2500 ppm [5] | mortality at 500 ppm [6] | mortality at 2500 ppm [7] | mortality at 2500 ppm [8]

CNC(=O)c1cc(/C=N/NC(N)=O)cc(C)c1NC(=O)c1ccc(C(F)(F)F)cc1-c1ncccc1Cl [Compound 1-3, 5-[(E)-(carbamoylhydrazono)methyl]-2-[[2-(3-chloro-2-pyridyl)-4-(trifluoromethyl)benzoyl]amino]-N,3-dimethyl-benzamide]
> 75%: mortality at 2500 ppm [3] | mortality at 2500 ppm [5] | mortality at 500 ppm [6]

Reference: patent publication US20140200134A1, “Anthranilamide Compounds and their use as Pesticides” (BASF SE, priority 2011, published 2014)
